Laboratory results as given in patent publication US20220106271A1, “2-BROMO-6-ALKOXYPHENYL-SUBSTITUTED PYRROLIN-2-ONES AND THEIR USE AS HERBICIDES” (Bayer Aktiengesellschaft, priority 2018, published 2022).

What was measured:
Format in all cases: in vivo
Lolium rigidum [1] = assay: Pre-emergence herbicidal effect, greenhouse pot test; conditions: 320 g/ha, scored visually after 3 weeks, 100% = plants have died, 0% = like control plants
From the text: (§1) 1. Pre-emergence herbicidal effect and crop plant compatibility Seeds of monocotyledonous and dicotyledonous weed plants and crop plants are laid out in sandy loam soil in wood-fibre pots and covered with soil. The compounds of the invention, formulated in the form of wettable powders (WP) or as emulsion concentrates (EC), are then applied to the surface of the covering soil as aqueous suspension or emulsion at a water application rate equating to 600 to 800 L/ha with addition of 0.2% wetting agent.
(§2) After the treatment, the pots are placed in a greenhouse and kept under good growth conditions for the trial plants. The damage to the test plants is scored visually after a test period of 3 weeks by comparison with untreated controls (herbicidal activity in percent (%): 100% activity=the plants have died, 0% activity=like control plants).

Cyperus esculentus = assay: as above; conditions: 320 g/ha, scored visually after 3 weeks, 100% = plants have died, 0% = like control plants
From the text: as §1, §2

Stellaria media = assay: as above; conditions: scored visually after 3 weeks, dosage 320 g/ha printed only in the upper half of Table 2
From the text: as §1, §2

Veronica persica = assay: as above; conditions: scored visually after 3 weeks, dosage 320 g/ha printed only in the upper half of Table 2
From the text: as §1, §2

Hordeum murinum [2] = assay: as above; conditions: scored visually after 3 weeks, dosage 320 g/ha printed only in the upper half of Table 2
From the text: as §1, §2

Abutylon threophrasti = assay: as above; conditions: scored visually after 3 weeks, dosage 320 g/ha printed only in the upper half of Table 2
From the text: as §1, §2

Polygonum convolvulus = assay: as above; conditions: scored visually after 3 weeks, dosage 320 g/ha printed only in the upper half of Table 2
From the text: as §1, §2

Echinochloa crus-galli [3] = assay: as above; conditions: 320 g/ha, scored visually after 3 weeks, 100% = plants have died, 0% = like control plants
From the text: as §1, §2

Alopecurus myosuroides [4] = assay: as above; conditions: 320 g/ha, scored visually after 3 weeks, 100% = plants have died, 0% = like control plants
From the text: as §1, §2

Amaranthus retroflexus = assay: as above; conditions: scored visually after 3 weeks, dosage 320 g/ha printed only in the upper half of Table 2
From the text: as §1, §2

Setaria viridis [5] = assay: as above; conditions: 320 g/ha, scored visually after 3 weeks, 100% = plants have died, 0% = like control plants
From the text: as §1, §2

Viola tricolor = assay: as above; conditions: scored visually after 3 weeks, dosage 320 g/ha printed only in the upper half of Table 2
From the text: as §1, §2

Avena fatua [6] = assay: Post-emergence herbicidal effect, greenhouse pot test; conditions: 80 g/ha, post-emergence at one-leaf stage, assessed visually after about 3 weeks; 100% = plants have died, 0% = like control plants
Protocol: (§3) Seeds of monocotyledonous and dicotyledonous weed and crop plants are laid out in sandy loam soil in wood-fibre pots, covered with soil and cultivated in a greenhouse under good growth conditions. 2 to 3 weeks after sowing, the test plants are treated at the one-leaf stage. The compounds of the invention, formulated in the form of wettable powders (WP) or as emulsion concentrates (EC), are then sprayed onto the green parts of the plants as aqueous suspension or emulsion at a water application rate equating to 600 to 800 L/ha with addition of 0.2% wetting agent. After the test plants have been left to stand in the greenhouse under optimal growth conditions for about 3 weeks, the action of the preparations is assessed visually in comparison to untreated controls (herbicidal action in percent (%): 100% activity=the plants have died, 0% activity=like control plants).

Lolium rigidum [7] = assay: as above; conditions: 80 g/ha, post-emergence at one-leaf stage, assessed visually after about 3 weeks; 100% = plants have died, 0% = like control plants
Protocol: as §3

Hordeum murinum [8] = assay: as above; conditions: 80 g/ha, post-emergence at one-leaf stage, assessed visually after about 3 weeks; 100% = plants have died, 0% = like control plants
Protocol: as §3

Echinochloa crus-galli [9] = assay: as above; conditions: 80 g/ha, post-emergence at one-leaf stage, assessed visually after about 3 weeks; 100% = plants have died, 0% = like control plants
Protocol: as §3

Alopecurus myosuroides [10] = assay: as above; conditions: 80 g/ha, post-emergence at one-leaf stage, assessed visually after about 3 weeks; 100% = plants have died, 0% = like control plants
Protocol: as §3

Setaria viridis [11] = assay: as above; conditions: 80 g/ha, post-emergence at one-leaf stage, assessed visually after about 3 weeks; 100% = plants have died, 0% = like control plants
Protocol: as §3

Avena fatua [12] = assay: Pre-emergence herbicidal effect, greenhouse pot test; conditions: 320 g/ha, scored visually after 3 weeks, 100% = plants have died, 0% = like control plants
From the text: as §1, §2

CC#Cc1cc(Br)c(C2=C(O)C3(CCC(OC)CC3)NC2=O)c(OC)c1 (single isomer, unassigned) [Example 1.1, 3-[2-Bromo-6-methoxy-4-(prop-1-yn-1-yl)phenyl]-4-hydroxy-8-methoxy-1-azaspiro[4.5]dec-3-en-2-one]
Pre-emergence action LOLRI (herbicidal activity in percent) (Lolium rigidum [1]): 100%
Pre-emergence action CYPES (herbicidal activity in percent) (Cyperus esculentus): 100%
Pre-emergence action STEME (herbicidal activity in percent) (Stellaria media): 100%
Pre-emergence action VERPE (herbicidal activity in percent) (Veronica persica): 100%
Pre-emergence action HORMU (herbicidal activity in percent) (Hordeum murinum [2]): 100%
Pre-emergence action ABUTH (herbicidal activity in percent) (Abutylon threophrasti): 100%
Pre-emergence action POLCO (herbicidal activity in percent) (Polygonum convolvulus): 100%
Pre-emergence action ECHCG (herbicidal activity in percent) (Echinochloa crus-galli [3]): 100%
Pre-emergence action ALOMY (herbicidal activity in percent) (Alopecurus myosuroides [4]): 100%
Pre-emergence action AMARE (herbicidal activity in percent) (Amaranthus retroflexus): 100%
Pre-emergence action SETVI (herbicidal activity in percent) (Setaria viridis [5]): 100%
Pre-emergence action VIOTR (herbicidal activity in percent) (Viola tricolor): 100%
Post-emergence action AVEFA (herbicidal action in percent) (Avena fatua [6]): 100%
Post-emergence action LOLRI (herbicidal action in percent) (Lolium rigidum [7]): 100%
Post-emergence action HORMU (herbicidal action in percent) (Hordeum murinum [8]): 100%
Post-emergence action ECHCG (herbicidal action in percent) (Echinochloa crus-galli [9]): 100%
Post-emergence action ALOMY (herbicidal action in percent) (Alopecurus myosuroides [10]): 90%
Post-emergence action SETVI (herbicidal action in percent) (Setaria viridis [11]): 90%

CC#Cc1cc(Br)c(C2=C(O)C3(CCC(OC)CC3)NC2=O)c(OC)c1 (single isomer, unassigned) [Example 1.2]
Pre-emergence action AVEFA (herbicidal activity in percent) (Avena fatua [12]): 100%
Pre-emergence action LOLRI (herbicidal activity in percent) (Lolium rigidum [1]): 100%
Pre-emergence action CYPES (herbicidal activity in percent) (Cyperus esculentus): 100%
Pre-emergence action STEME (herbicidal activity in percent) (Stellaria media): 100%
Pre-emergence action VERPE (herbicidal activity in percent) (Veronica persica): 100%
Pre-emergence action HORMU (herbicidal activity in percent) (Hordeum murinum [2]): 100%
Pre-emergence action ABUTH (herbicidal activity in percent) (Abutylon threophrasti): 100%
Pre-emergence action POLCO (herbicidal activity in percent) (Polygonum convolvulus): 100%
Pre-emergence action ECHCG (herbicidal activity in percent) (Echinochloa crus-galli [3]): 100%
Pre-emergence action ALOMY (herbicidal activity in percent) (Alopecurus myosuroides [4]): 100%
Pre-emergence action AMARE (herbicidal activity in percent) (Amaranthus retroflexus): 100%
Pre-emergence action SETVI (herbicidal activity in percent) (Setaria viridis [5]): 100%
Pre-emergence action VIOTR (herbicidal activity in percent) (Viola tricolor): 100%
Post-emergence action AVEFA (herbicidal action in percent) (Avena fatua [6]): 90%
Post-emergence action LOLRI (herbicidal action in percent) (Lolium rigidum [7]): 90%
Post-emergence action HORMU (herbicidal action in percent) (Hordeum murinum [8]): 100%
Post-emergence action ECHCG (herbicidal action in percent) (Echinochloa crus-galli [9]): 100%
Post-emergence action ALOMY (herbicidal action in percent) (Alopecurus myosuroides [10]): 90%
Post-emergence action SETVI (herbicidal action in percent) (Setaria viridis [11]): 90%

CC#Cc1cc(Br)c(C2=C(OC(=O)OCC)C3(CCC(OC)CC3)NC2=O)c(OC)c1 (stereo not drawn) [Example 1.3, 3-[2-Bromo-6-methoxy-4-(prop-1-yn-1-yl)phenyl]-8-methoxy-2-oxo-1-azaspiro[4.5]dec-3-en-4-yl ethyl carbonate]
Pre-emergence action AVEFA (herbicidal activity in percent) (Avena fatua [12]): 100%
Pre-emergence action LOLRI (herbicidal activity in percent) (Lolium rigidum [1]): 100%
Pre-emergence action CYPES (herbicidal activity in percent) (Cyperus esculentus): 100%
Pre-emergence action STEME (herbicidal activity in percent) (Stellaria media): 100%
Pre-emergence action VERPE (herbicidal activity in percent) (Veronica persica): 100%
Pre-emergence action HORMU (herbicidal activity in percent) (Hordeum murinum [2]): 100%
Pre-emergence action ABUTH (herbicidal activity in percent) (Abutylon threophrasti): 100%
Pre-emergence action POLCO (herbicidal activity in percent) (Polygonum convolvulus): 100%
Pre-emergence action ECHCG (herbicidal activity in percent) (Echinochloa crus-galli [3]): 100%
Pre-emergence action ALOMY (herbicidal activity in percent) (Alopecurus myosuroides [4]): 100%
Pre-emergence action AMARE (herbicidal activity in percent) (Amaranthus retroflexus): 100%
Pre-emergence action SETVI (herbicidal activity in percent) (Setaria viridis [5]): 100%
Pre-emergence action VIOTR (herbicidal activity in percent) (Viola tricolor): 100%
Post-emergence action AVEFA (herbicidal action in percent) (Avena fatua [6]): 90%
Post-emergence action LOLRI (herbicidal action in percent) (Lolium rigidum [7]): 100%
Post-emergence action HORMU (herbicidal action in percent) (Hordeum murinum [8]): 100%
Post-emergence action ECHCG (herbicidal action in percent) (Echinochloa crus-galli [9]): 100%
Post-emergence action ALOMY (herbicidal action in percent) (Alopecurus myosuroides [10]): 90%
Post-emergence action SETVI (herbicidal action in percent) (Setaria viridis [11]): 90%

CC#Cc1cc(Br)c(C2=C(OC(=O)C(C)C)C3(CCC(OC)CC3)NC2=O)c(OC)c1 (stereo not drawn) [Example 1.4]
Pre-emergence action AVEFA (herbicidal activity in percent) (Avena fatua [12]): 100%
Pre-emergence action LOLRI (herbicidal activity in percent) (Lolium rigidum [1]): 100%
Pre-emergence action CYPES (herbicidal activity in percent) (Cyperus esculentus): 100%
Pre-emergence action STEME (herbicidal activity in percent) (Stellaria media): 100%
Pre-emergence action VERPE (herbicidal activity in percent) (Veronica persica): 100%
Pre-emergence action HORMU (herbicidal activity in percent) (Hordeum murinum [2]): 100%
Pre-emergence action ABUTH (herbicidal activity in percent) (Abutylon threophrasti): 100%
Pre-emergence action POLCO (herbicidal activity in percent) (Polygonum convolvulus): 100%
Pre-emergence action ECHCG (herbicidal activity in percent) (Echinochloa crus-galli [3]): 100%
Pre-emergence action ALOMY (herbicidal activity in percent) (Alopecurus myosuroides [4]): 100%
Pre-emergence action AMARE (herbicidal activity in percent) (Amaranthus retroflexus): 100%
Pre-emergence action SETVI (herbicidal activity in percent) (Setaria viridis [5]): 100%
Pre-emergence action VIOTR (herbicidal activity in percent) (Viola tricolor): 100%
Post-emergence action AVEFA (herbicidal action in percent) (Avena fatua [6]): 90%
Post-emergence action LOLRI (herbicidal action in percent) (Lolium rigidum [7]): 100%
Post-emergence action HORMU (herbicidal action in percent) (Hordeum murinum [8]): 100%
Post-emergence action ECHCG (herbicidal action in percent) (Echinochloa crus-galli [9]): 90%
Post-emergence action ALOMY (herbicidal action in percent) (Alopecurus myosuroides [10]): 90%
Post-emergence action SETVI (herbicidal action in percent) (Setaria viridis [11]): 90%
